Data set [1] is described as follows: Sterility and exothermic substance check of the filtered ^11 C-labelled glutamic acid product. The note with it: after sterilized 0.2 μm filter. How it is done: NaOH of 2.5M was added to a reaction solution containing the γ-cyano-α-aminobutyric acid of which cyano group carbon being labelled with positron nuclide ^11 C, as obtained in Example 6, and temperature of the mixture was raised to 135° C. After the lapse of 15 minutes, the reaction solution was mixed with 8 ml 50 mM NaH2 PO4, and the resultant mixture was passed through an anion exchange resin (800 mg AGI-x8 200-400 mesh hydroxide form). After washing with 50 mM NaH2 PO4 in an amount of 6 ml, the reaction product was eluted with 150 mM NaH2 PO4 (pH adjusted to 2.8 with phosphoric acid), and the elute was received in a receptacle containing 150 μl 8.5% phosphoric acid. The contents were passed through a sterilized filter having a pore diameter of 0.2 μm for collection in bial.

A further data set deals with human or rat gliomacyte. The note with it: cited from earlier work.
A further data set has as its system rat glioma. The data set can be described thus: Uptake of ^11 C-labelled L-DABA into rat glioma cells in culture. In kind it is cell-based. The note with it: medium with amino acid content close to the biological one, control phosphate-buffered saline, FIG. 7. How it is done: Biological applicability of the ^11 C-labelled L-DABA obtained in Example 3 was evaluated. The relationship between concentration of the L-DABA added to culture medium of rat glioma and uptake of radioactivity into the glioma cells in a given duration was investigated in a medium having an amino acid content close to the biological one, and for control, in a physiological saline buffered with phosphoric acid.

In the case of `N[C@@H](CC[11C](=O)O)C(=O)O` [^11 C-labelled glutamic acid], in data set [1], the exothermic substance entry is listed as “no exothermic substance was detected” and the sterility of product result is listed as “germ-free”. As for `N[C@@H](CCC(=O)O)C(=O)O` [L-glutamic acid], the incorporation into gliomacyte entry in the data set on human or rat gliomacyte is listed as “found to be incorporated into human or rat gliomacyte”.

`NCCC(N)C(=O)O` (stereo not drawn) [2,4-Diaminobutyric acid (DABA), 2,4-Diaminobutyric acid]: the incorporation into gliomacyte entry in the data set on human or rat gliomacyte was “found to be incorporated into human or rat gliomacyte”. On to `N[11CH2]C[C@H](N)C(=O)O` [^11 C-labelled L-DABA, L-2,4-diaminobutyric acid (L-DABA) labelled with ^11 C], for which the “uptake of radioactivity into the glioma cells” value in the data set with rat glioma is recorded as “dependent on the concentration of it in culture medium”. Turning to `NC(=O)CC[C@H](N)C(=O)O` [L-glutamine], the incorporation into gliomacyte result with human or rat gliomacyte was “found to be incorporated into human or rat gliomacyte”.

The values are drawn from patent US5847193A, “Labelled compound” (priority 1995, dated 1998).
